Data on 7 molecules can be found in patent publication US7132443B2, “Fluoropyrrolidines as dipeptidyl peptidase inhibitors” (SmithKlineBeecham Corporation, priority 2001, dated 2006).

Counter-ions that a name gives are not always drawn. Like-named read-outs stand apart in the source and are kept apart here.

The target in series [1] is T1, human DPP-IV (Homo sapiens, UniProt P27487).
T1 construct: The material was isolated from human prostasomes using the method of DeMeester et al; purchased Athens Research and Technology, Inc; host or cells: human prostasomes (natural source)
T1 sequence (P27487 whole entry): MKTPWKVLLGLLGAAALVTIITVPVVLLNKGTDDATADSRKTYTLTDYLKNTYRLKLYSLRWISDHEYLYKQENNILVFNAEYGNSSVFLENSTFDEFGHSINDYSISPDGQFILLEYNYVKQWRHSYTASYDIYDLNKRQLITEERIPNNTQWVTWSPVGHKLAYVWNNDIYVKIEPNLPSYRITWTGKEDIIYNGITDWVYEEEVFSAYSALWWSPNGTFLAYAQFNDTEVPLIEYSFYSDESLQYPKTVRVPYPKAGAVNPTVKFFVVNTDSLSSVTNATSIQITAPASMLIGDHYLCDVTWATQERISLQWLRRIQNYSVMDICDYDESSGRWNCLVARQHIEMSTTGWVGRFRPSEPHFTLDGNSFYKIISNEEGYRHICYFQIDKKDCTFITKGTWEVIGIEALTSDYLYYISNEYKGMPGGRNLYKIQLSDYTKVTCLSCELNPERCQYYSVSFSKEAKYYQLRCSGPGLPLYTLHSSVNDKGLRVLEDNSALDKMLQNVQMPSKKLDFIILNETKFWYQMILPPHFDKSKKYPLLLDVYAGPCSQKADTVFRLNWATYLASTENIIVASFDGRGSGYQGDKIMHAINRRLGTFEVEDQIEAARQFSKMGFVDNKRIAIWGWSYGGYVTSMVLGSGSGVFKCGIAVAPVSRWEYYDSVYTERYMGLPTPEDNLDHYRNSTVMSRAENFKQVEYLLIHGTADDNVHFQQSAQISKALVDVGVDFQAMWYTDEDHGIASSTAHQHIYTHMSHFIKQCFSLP
Put plainly: DPP-IV assay (H-Ala-Pro-pNA hydrolysis, absorbance). Format: biochemical. The method, then:
A 500 mM stock solution was prepared with dimethylsulfoxide and stored at −20° C. Gly-Pro-AMC was purchased from Enzyme System Products (product no. AMC-39) and stored at −20° C. as a 10 mM stock solution in dimethylsulfoxide. Test compounds were dissolved to 10 mM in dimethylsulfoxide and this was used as a stock solution for DPP-IV titration assays. Athens Research and Technology, Inc prepared the purified human DPP-IV. The material was isolated from human prostasomes using the method of DeMeester et al., J. Immunol.
The average enzymatic activity from wells containing dimethylsulfoxide but lacking test compound was used as a control value for calculating percent inhibition. DPP-IV (20 ng/mL) was mixed in microtiter plates with test compounds, substrate and assay buffer to yield 100 μM H-Ala-Pro-pNA•HCl in 25 mM Tris, pH 7.5, 10 mM KCl, 140 mM NaCl. The intact peptide contains a p-nitrophenylanilide which, when hydrolyzed by DPP-IV, releases the absorbant p-nitrophenylaniline. […] The enzymatic activity was determined by estimating the best linear fit to the data. Values for enzymatic activity were taken directly from the linear fit determined by the software on the plate reader.
Data Analysis: The enzymatic activity was determined by estimating the best linear fit to the data. Data reduction was performed using the Microsoft Excel RoboSage.
Determination of Ki values: Ki values were calculated from IC50 values using equation 3 assuming a competitive model.

Series [2] has as its target T2, DPP-IV activity in serum (Rattus norvegicus, UniProt P14740).
T2 construct: from tissue; host or cells: serum/plasma of male CD rats dosed orally
In words: DPP-IV activity in serum of rats 6 hrs after oral dosing. Format: in vivo. The conditions noted are these: for inhibition at 1 mg/kg: rat, read-out: Percent DPP-IV inhibition At 6 hrs In Rats; for duration of action: rats, 6 hrs after 1 mg/kg oral. The method, then: Age and weight matched male CD rats were housed individually at 72° F. and 50% relative humidity with a 12 h light/dark cycle. Animals were dosed by oral gavage with vehicle (10 mM acetic acid) or 1 mg/kg test compound in vehicle. After 6 hrs administration of compound, the rats were anesthetized with isofluorane for cardiac blood collection. DPP-IV activity in serum was measured using the fluorogenic substrate Gly-Pro-AMC (50 mM) according to the manufacturers specification (Enzyme System Products, Livermore Calif.). The substrate was mixed with 50 mM Tris, pH 7.8, in plasma (20% final v/v) and the samples were incubated for 5–20 min at 30° C. DPP-IV activity was determined by measuring fluorescence using a cytofluor spectrofluoremeter with the filters set at 360 nm excitation and 460 nm emission. Averages and standard deviations from each group (n=3) were calculated using students t-test and compared to vehicle treated rats to determine percent inhibition as shown in Table 1.

Series [3] can be described thus: Stability studies in Phosphate Buffered Saline by HPLC (cyclization/degradation half-life). The following applies: PBS; for half-life: Phosphate Buffered Saline.
Text: (§1) An initial time point HPLC chromatogram is obtained followed by successive HPLC chromatograms at time points of 24, 48, 72, etc hours.
(§2) The area under the drug substance peak is compared to the initial area for each chromatogram and plotted as percent remaining from initial time (t0).
For series [4], the system named is dogs. Put plainly: Dose escalation studies in dogs, limiting gastrointestinal toxicity. In kind it is in vivo. The method, then: The dog is a common non-rodent species routinely used to satisfy regulatory requirements. The beagle was chosen to examine the safety of the compounds of the present invention because of the knowledge of this strain's general pathology and response to a wide variety of drugs. Dogs (Marshall Farms Inc., North Rose, N.Y., USA) from 9 to 12 months (5 to 12 kg) were dosed by oral gavage at 10 mL/kg/day with vehicle (10 mM acetic acid, pH 3.3) or test compound in vehicle. Each dose was followed by a flush of approximately 10 mL of water, once daily with 24–48 hours between each subsequent dose. If limiting gastrointestinal toxicity was not observed, the dose was increased 3-fold no sooner than approximately 24 hours after the preceding dose. Limiting GI toxicity includes diarrhea, loose or mucoid feces, blood in stool, and/or sloughing of the gut epithelium. Clinical observations were made at least three times daily during treatment (once prior to dosing, approximately one hour post dose, and once in conjunction with pm viability). DPP-IV activity in serum was measured using the fluorogenic substrate Gly-Pro-AMC (50 mM) according to the manufacturers specification (Enzyme System Products, Livermore Calif.). […] DPP-IV activity was determined by measuring fluorescence using a cytofluor spectrofluoremeter with the filters set at 360 nm excitation and 460 nm emission.

The target of series [5] is T3, DPP-IV activity in serum (Canis lupus familiaris, UniProt A0A8I3Q2I8).
T3 construct: The substrate was mixed with 50 mM Tris, pH 7.8, in serum (20% final v/v); from tissue; host or cells: serum of beagle dogs dosed orally
T3 sequence (A0A8I3Q2I8 1-765): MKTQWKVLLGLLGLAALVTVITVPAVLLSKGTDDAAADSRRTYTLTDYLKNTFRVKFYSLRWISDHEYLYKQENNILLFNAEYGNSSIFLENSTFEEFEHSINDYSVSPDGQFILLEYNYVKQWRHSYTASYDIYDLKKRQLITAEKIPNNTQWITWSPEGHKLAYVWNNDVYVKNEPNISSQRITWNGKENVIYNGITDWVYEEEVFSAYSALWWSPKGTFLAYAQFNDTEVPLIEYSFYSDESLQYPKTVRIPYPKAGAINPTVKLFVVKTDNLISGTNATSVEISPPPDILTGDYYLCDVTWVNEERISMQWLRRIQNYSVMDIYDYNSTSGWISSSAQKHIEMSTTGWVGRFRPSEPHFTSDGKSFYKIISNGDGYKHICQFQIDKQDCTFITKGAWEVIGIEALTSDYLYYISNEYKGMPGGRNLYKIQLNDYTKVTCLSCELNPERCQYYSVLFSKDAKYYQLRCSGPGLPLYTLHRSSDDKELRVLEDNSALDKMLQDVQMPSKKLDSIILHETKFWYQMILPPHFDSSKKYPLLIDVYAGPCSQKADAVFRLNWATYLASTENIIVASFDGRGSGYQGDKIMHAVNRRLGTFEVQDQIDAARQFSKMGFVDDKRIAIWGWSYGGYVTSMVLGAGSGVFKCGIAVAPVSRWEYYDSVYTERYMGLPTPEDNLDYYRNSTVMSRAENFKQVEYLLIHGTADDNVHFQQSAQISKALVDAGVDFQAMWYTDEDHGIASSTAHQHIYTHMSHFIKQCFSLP
Put plainly: DPP-IV activity in serum of dogs after oral dosing. In kind it is in vivo. The conditions noted are these: dog, read-out: inhibited DPP4 12 hours after oral dosing.

Series [6] is described as follows: physchem. The conditions noted are these: buffer, t1/2 at 37° C.
Text: as §1, §2
Where [7] appears, read: Table I, read-out: IC50 (nM) Human DPP-IV.
The mark [8] stands for this setting: human DPP-IV, text b860, read-out: IC50 values.

T2 sequence (P14740 37-767 limits assumed): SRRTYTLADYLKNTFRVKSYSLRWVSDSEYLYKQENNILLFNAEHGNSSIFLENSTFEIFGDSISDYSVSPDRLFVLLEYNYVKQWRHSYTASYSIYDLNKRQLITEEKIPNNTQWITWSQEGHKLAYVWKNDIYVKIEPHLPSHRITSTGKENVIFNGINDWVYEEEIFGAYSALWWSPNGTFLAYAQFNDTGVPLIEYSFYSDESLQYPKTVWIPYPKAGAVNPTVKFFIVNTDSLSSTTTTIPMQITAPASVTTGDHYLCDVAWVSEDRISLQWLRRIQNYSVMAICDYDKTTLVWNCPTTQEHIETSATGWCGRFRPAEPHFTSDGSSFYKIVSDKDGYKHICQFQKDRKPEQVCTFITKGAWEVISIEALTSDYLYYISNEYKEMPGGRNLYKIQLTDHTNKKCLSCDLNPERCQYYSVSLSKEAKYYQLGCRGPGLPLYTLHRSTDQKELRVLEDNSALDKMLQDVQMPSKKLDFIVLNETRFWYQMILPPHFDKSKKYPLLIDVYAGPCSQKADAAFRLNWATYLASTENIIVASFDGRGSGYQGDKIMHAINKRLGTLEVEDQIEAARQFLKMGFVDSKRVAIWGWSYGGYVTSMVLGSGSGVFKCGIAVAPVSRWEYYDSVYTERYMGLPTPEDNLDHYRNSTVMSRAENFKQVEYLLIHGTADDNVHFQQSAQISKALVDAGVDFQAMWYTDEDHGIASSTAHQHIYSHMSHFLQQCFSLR

Broadly, the IC50 is the midpoint of a concentration-inhibition curve. As for `CC(C)[C@H](N)C(=O)N1C[C@@H](F)C[C@H]1C#N` [Comparison Example 1], the IC50 was 1.3 nM in series [1] (setting [7]) and below 5.6 nM in series [1] (setting [8]). The inhibition at 1 mg/kg in series [2] (po) was found to be 32 ± 3%. Further, the duration of action entry in series [2] is given as “poor level of duration”.
Taken in the same sequence, the figures for `N#C[C@@H]1C[C@H](F)CN1C(=O)[C@@H](N)CCC(=O)O` [Comparison Example 2] were 3 nM, below 5.6 nM, 32 ± 3% and “poor level of duration”.
The half-life is how long it takes for the measured level to halve. For `CC[C@H](C)[C@H](N)C(=O)N1C[C@@H](F)C[C@H]1C#N` [Comparison Example 3], the half-life in series [3] (t1/2 at 23° C., ambient room temperature 23° C.) was 47 h; in series [3] (t1/2 at 37° C. (calc.), calculated for 37° C. from value measured at 23° C.), 23 h.
As to `CC(C)(C)[C@H](N)C(=O)N1C[C@@H](F)C[C@H]1C#N` [Comparison Example 5], the IC50 in series [1] (setting [7]) came out at 3 nM. The inhibition at 1 mg/kg in series [2] (po) stood at 71 ± 13%. Also, the “gastrointestinal toxicity, dose escalation in dogs” value in series [4] (0.3 mg/kg oral gavage) is listed as “loose/mucoid feces with traces of blood”. The inhibition at 0.2 mg/kg in series [5] (po) stood at 2%.
Turning to `N#C[C@@H]1CCCN1C(=O)[C@@H](N)C(c1ccc(F)cc1)c1ccc(F)cc1` [Comparison Example 6], in series [2] (Table 3, rats, 6 Hrs.), the “% DPP-IV Inhibition @ 6 Hrs. In Rats” value was found to be 15 ± 1%.
Take `N#C[C@@H]1C[C@H](F)CN1C(=O)[C@@H](N)C(c1ccc(F)cc1)c1ccc(F)cc1` [Example 2, (2S,4S)-1-[(2S)-2-Amino-3,3-bis(4-fluorophenyl)propanoyl]-4-fluoropyrrolidine-2-carbonitrile hydrochloride]: in series [2] (1 mg/kg oral gavage, male CD rats, serum, 6 hrs, vs vehicle), the inhibition at 1 mg/kg turned out to be 68 ± 4%. Also, in series [4] (dog, in vivo), the “gastrointestinal toxicity, dose escalation in dogs” value was “no adverse affects on gastrointestinal toxicity”. Besides, the inhibition at 0.5 mg/kg in series [5] (dogs, 0.5 mg/kg oral, 12 hours, serum) was found to be 45%. This molecule gave a half-life in series [6] of 266 h.
In the case of `COc1ccc(CS(=O)(=O)C(C)(C)[C@H](N)C(=O)N2C[C@@H](F)C[C@H]2C#N)cc1` [Example 9, (2S,4S)-1-{(2R)-2-Amino-3-[(4-methoxybenzyl)sulfonyl]-3-methylbutanoyl}-4-fluoropyrrolidine-2-carbonitrile hydrochloride], in series [3] (37° C.), the “t1/2 at 37° C.” value amounted to 1733 h.
